Test results as given in patent US6551999B1, “Angiogenesis inhibitor” (Senju Pharmaceutical Co., Ltd., priority 1995, dated 2003).
pIC50: −log10 of the molar value. Ends that are not written are not given here.

Tests used:
papain = biological target: T1, papain (Carica papaya, UniProt P00784); test: Assay of papain-inhibitory activity (casein substrate); type: biochemical; settings: 60 minutes at 30° C., pH 8.0
T1 sequence (P00784 134-345): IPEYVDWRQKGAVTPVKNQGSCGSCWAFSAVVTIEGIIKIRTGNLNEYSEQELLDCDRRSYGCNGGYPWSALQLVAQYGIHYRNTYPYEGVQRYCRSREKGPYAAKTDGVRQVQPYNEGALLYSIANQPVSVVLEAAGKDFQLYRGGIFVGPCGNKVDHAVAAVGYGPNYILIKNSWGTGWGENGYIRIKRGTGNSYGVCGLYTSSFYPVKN
Experimental: (§1) The activity of papain which is a cysteine protease and of trypsin (Sigma) which is a serine protease was assayed in accordance with the method described in the literature [Anal. Biochem., 208, 387-392, 1993]. Thus, to a solution containing 0.5 mg/ml casein, 50 mM Tris-HCl (pH 8.0), 20 mM dithiothreitol, and 0.2 mM EDTA was added 2.5 μl of dimethyl sulfoxide containing a varying concentration of the test drug as well as 0.03 unit of papain or trypsin to initiate the reaction. The final liquid volume was adjusted to 250 μl. After 60 minutes of reaction at 30° C., 100 μl of the reaction mixture was transferred to another vessel and following addition of 50 μl of purified water and 100 μl of 50% Coumassie brilliant blue solution, the mixture was allowed to stand at room temperature for 15 minutes. The absorbance of the mixture was then measured at 595 nm. Using the value found similarly by adding 2.5 μl of dimethyl sulfoxide not containing the test drug as control and the value found without addition of the enzyme as blank, IC50 was determined in the same manner as above.

trypsin = biological target: T2, trypsin (UniProt P00760); test: Assay of trypsin-inhibitory activity (casein substrate); type: biochemical; settings: read-out: Trypsin 50% Inhibitory concentration (IC50); 60 minutes at 30° C., pH 8.0
T2 sequence (P00760 1-246): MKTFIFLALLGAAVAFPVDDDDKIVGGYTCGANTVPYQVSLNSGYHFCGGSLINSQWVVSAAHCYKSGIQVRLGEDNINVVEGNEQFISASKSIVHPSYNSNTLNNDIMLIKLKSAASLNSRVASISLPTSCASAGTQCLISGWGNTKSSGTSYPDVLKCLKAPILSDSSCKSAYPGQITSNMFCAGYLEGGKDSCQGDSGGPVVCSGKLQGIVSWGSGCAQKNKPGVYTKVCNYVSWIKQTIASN
Experimental: as §1

μ-calpain = biological target: T3, μ-calpain (Homo sapiens, UniProt P07384); test: μ-Calpain-inhibitory activity (casein substrate); type: biochemical; settings: 60 minutes at 30° C., pH 7.4, 4 mM calcium chloride
T3 construct: purchased Nakalai Tesque
T3 sequence (P07384 1-714): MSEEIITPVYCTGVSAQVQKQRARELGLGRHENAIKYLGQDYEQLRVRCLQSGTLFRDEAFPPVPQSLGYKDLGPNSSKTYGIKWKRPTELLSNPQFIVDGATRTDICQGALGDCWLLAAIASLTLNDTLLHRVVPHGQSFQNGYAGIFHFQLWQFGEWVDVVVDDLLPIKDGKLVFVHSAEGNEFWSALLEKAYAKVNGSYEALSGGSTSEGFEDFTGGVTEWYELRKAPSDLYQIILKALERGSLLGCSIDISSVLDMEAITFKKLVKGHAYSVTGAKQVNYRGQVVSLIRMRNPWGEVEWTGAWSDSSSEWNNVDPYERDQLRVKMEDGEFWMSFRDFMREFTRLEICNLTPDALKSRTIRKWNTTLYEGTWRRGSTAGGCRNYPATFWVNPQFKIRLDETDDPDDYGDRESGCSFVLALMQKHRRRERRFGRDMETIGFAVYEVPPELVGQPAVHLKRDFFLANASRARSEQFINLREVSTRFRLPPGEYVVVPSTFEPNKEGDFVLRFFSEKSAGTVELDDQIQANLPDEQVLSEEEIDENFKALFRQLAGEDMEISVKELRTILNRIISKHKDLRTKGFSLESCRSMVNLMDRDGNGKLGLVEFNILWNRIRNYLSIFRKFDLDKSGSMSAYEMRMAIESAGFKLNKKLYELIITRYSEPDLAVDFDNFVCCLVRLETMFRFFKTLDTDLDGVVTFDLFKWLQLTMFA
T3 sequence (P04632 1-268 partner): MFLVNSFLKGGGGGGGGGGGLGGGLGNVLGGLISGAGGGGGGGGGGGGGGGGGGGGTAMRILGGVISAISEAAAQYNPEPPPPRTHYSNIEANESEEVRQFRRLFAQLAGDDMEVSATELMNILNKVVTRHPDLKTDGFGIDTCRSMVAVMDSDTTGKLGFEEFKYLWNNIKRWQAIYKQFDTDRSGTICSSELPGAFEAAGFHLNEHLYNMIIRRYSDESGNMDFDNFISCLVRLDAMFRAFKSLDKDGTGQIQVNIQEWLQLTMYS
Experimental: Thus, to a solution containing 0.5 mg/ml casein, 50 mM Tris-HCl (pH 7.4), 20 mM dithiothreitol, and 4 mM calcium chloride was added 2.5 μl of a dimethyl sulfoxide solution containing a varying concentration of the test drug as well as 0.03 unit of μcalpain to initiate the reaction. The final liquid volume was 250 μl. After 60 minutes of reaction at 30° C., 100 μl of the reaction mixture was transferred to another vessel, to which 50 μl of purified water and 100 μl of 50% Coumassie brilliant blue solution were added. […] As a control, 2.5 μl of dimethyl sulfoxide not containing the test drug was added and the mixture was treated in the same manner as above. […] Similarly, the value found by adding 0.2 mM EDTA in lieu of 4 mM aqueous calcium chloride solution was used as the blank value. […] [formula]

cathepsin L = biological target: T4, cathepsin L (Homo sapiens, UniProt P07711); test: Assay of cathepsin L-inhibitory activity (Z-Phe-Arg-MCA); type: biochemical; settings: 20 minutes at 30° C., pH 5.5
T4 construct: purchased Cosmo Bio
T4 sequence (P07711 114-333, species assumed): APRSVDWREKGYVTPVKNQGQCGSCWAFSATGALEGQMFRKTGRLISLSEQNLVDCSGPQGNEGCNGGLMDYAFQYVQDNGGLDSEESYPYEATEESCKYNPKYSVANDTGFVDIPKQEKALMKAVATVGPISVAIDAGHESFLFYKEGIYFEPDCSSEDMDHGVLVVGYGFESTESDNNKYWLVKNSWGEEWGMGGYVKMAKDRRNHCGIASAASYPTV
Experimental: The activity of cathepsin L (Cosmo Bio), a cysteine protease, was assayed by the method described in the literature [Methods in Enzymology, 80, 535-561, 1981]. Thus, to a solution containing 85 mM acetate buffer (pH 5.5), 2 mM dithiothreitol, 1 mM EDTA, 2 μg cathepsin L, and a varying concentration of the test compound was added 50 μl of 20 μM carbobenzoxy-L-phenylalanyl-L-arginine-4-methylcoumaryl-7-amide (Z-Phe-Arg-MCA) to initiate the reaction at the final liquid volume of 200 μl. After 20 minutes of reaction at 30° C., 20 μl of 1 M Tris-HCl (pH 8.0) was added so as to stop the reaction. The amount of liberated 4-methyl-7-aminocoumarin was determined with a fluorospectrometer at an excitation wavelength of 360 nm and a fluorescent emission wave length of 450 nm. Using the value found without addition of the test drug as control and the value found without addition of the enzyme as blank, IC50 was determined in the same manner as above.

[1] = tested on: angiogenesis in cornea of guinea pig; test: Angiogenesis in cornea of guinea pig by transplantation of bFGF-containing pellet; type: in vivo; settings: 9 days posttransplantation; for Observation of cornea with a slit lamp: appearance of newly formed blood vessels compared to the control group: test pellet (27 mer calpastatin peptide 0.03 and 0.1 μmole, leupeptin 0.1 μmole) together with bFGF (500 ng) pellet; for Wet weight of cornea compared to the control group / Amount of albumin in cornea compared to the control group: test pellet together with bFGF pellet; for Amount of albumin in cornea compared to the control group: SDS-PAGE image analysis
Experimental: (1) Method for Preparing Pellets for Transplantation
A solution (5 μl) of 8% ethylene vinyl acetate copolymer (EVA) in dichloromethane was dropped on a plate made of Tefron, air-dried, and 0.0167 w/v % bFGF (3 μl) was dropped thereon and air-dried. After drying, the obtained product was rounded into a small rod to give a bFGF (500 ng)-containing pellet.
Using a test solution instead of 0.0167 w/v % bFGF, a test solution-containing pellet was prepared in the same manner as above. The test solution-containing pellets were prepared to contain 27 mer calpastatin peptide (0.03 μmole and 0.1 μmule/pellet, Sigma) and leupeptin (0.1 μmole/pellet, PEPTIDE […], INC.).
As a control, a pellet made of EVA alone was prepared and used as a vehicle pellet.
(2) Transplantation of Pellet into Cornea of Guinea Pig
The procedure followed the method of M. Kusaka et al. [Biochem. Biophys. Res. Comm., vol. 174, pp. 1070-1076 (1991)]. That is, male guinea pigs weighing 300-400 g were anesthetized with a 1:1 mixture of Ketalar 50 (ketamin hydrochloride, Sankyo Company, Limited) and Celactal (xylazine hydrochloride, Bayer, Ltd.). A pocket was formed in the intercellular layer of corneal stroma layer of both eyes from corneal limbus to the center of cornea, using a 0.5 mm width ophthalmic spatula. A test solution-containing pellet was inserted into the pocked thus formed, and a bFGF-containing pellet was inserted in adjacency thereto. For prevention of infection, ofloxacin eye ointment [Tarivid eye ointment (ofloxacin 0.3%, manufactured by Santen Pharmaceutical Co., Ltd.) was instilled once immediately after insertion of the pellets. Thereafter, 0.3% lomefloxacin (lomeflon ophthalmic otologic solution, manufactured by Senju Pharmaceutical Co., Ltd.) was instilled once a day for 5 days.
(3) Evaluation of the Effects of Cysteine Protease Inhibitor
The blood vessel newly formed in cornea which is an avascular tissue had high permeability, and the wet weight and plasma content were expected to elevate due to incurrent of plasma components as a result of high permeability. At 9 days posttransplantation of pellet, guinea pigs were euthanized and cornea was collected. The obtained cornea was weighed (wet weight). Then, it was homogenized, and subjected to centrifugation. The obtained water soluble protein was separated by SDS polyacrylamide gel electrophoresis. After electrophoresis, the gel was stained with Coomassie Brilliant Blue. By image analysis (NIH Image 1.31), albumin which is one of the major proteins in plasma was quantitatively assayed. As the standard substance, guinea pig serum albumin was used.

Molecule	pIC50 (papain)	pIC50 (trypsin)	pIC50 (μ-calpain)	pIC50 (cathepsin L)	further results
CCC(C)[C@H](NC(=O)[C@H]1O[C@@H]1C(=O)O)C(=O)N1CCN(c2ccccc2Cl)CC1 (some centres unmarked) [Compound 24, (2s,3s)-3-[[[[(1s)-1-[[4-(2-chlorophenyl)-1-piperazinyl]carbonyl]-2-methyl]butyl]amino]carbonyl]oxiranecarboxylic acid]	7.33	< 2.52	6.08	8.05	
Cc1ccc(S(=O)(=O)N2CCN(C(=O)[C@H](CC(C)C)NC(=O)[C@H]3O[C@@H]3C(=O)O)CC2)cc1 [Compound 16, (2s,3s)-3-[[[[(1s)-1-[[4-(4-methylphenylsulfonyl)-1-piperazinyl]carbonyl]-3-methyl]butyl]amino]carbonyl]oxiranecarboxylic acid]	6.68	< 2.52	6.19	7.09	
O=C(O)[C@H]1O[C@@H]1C(=O)N[C@@H](Cc1ccccc1)C(=O)N1CCN(c2ccc(F)cc2)CC1 [Compound 11]	6.96	< 2.52	5.54	7.92	
CC(C)C[C@H](NC(=O)[C@H]1O[C@@H]1C(=O)O)C(=O)N1CCN(c2ccc(F)cc2)CC1 [Compound 13]	7.10	< 2.52	6.09	7.54	
CC(=O)N[C@@H](CC(C)C)C(=O)N[C@@H](CC(C)C)C(=O)N[C@H](C=O)CCCNC(=N)N [leupeptin]					Observation of cornea with a slit lamp: appearance of newly formed blood vessels compared to the control group [1]: the degree of appearance was mild; Wet weight of cornea compared to the control group [1]: suppressed increase in the wet weight of cornea; Amount of albumin in cornea compared to the control group [1]: suppressed increase in the amount of albumin in cornea
CC(C)C[C@@H](C=O)NC(=O)[C@@H](NS(=O)(=O)c1ccc2ccccc2c1)C(C)C [Compound 34, N-(2-naphthalenesulfonyl)-L-valyl-L-leucinal]			8.00		
CC(C)[C@H](NS(=O)(=O)c1ccc(Cl)cc1)C(=O)N[C@H](C=O)Cc1c[nH]c2ccccc12 [Compound 48, N-(4-chlorophenylsulfonyl)-L-valyl-L-tryptophanal]			7.89		
CC(C)(C)[C@H](NS(=O)(=O)c1ccc2ccccc2c1)C(=O)N[C@H](C=O)Cc1c[nH]c2ccccc12 [Compound 51, N-(2-naphthalenesulfonyl)-L-tert-leucyl-L-tryptophanal]			5.96		
CC(C)(C)[C@H](NS(=O)(=O)c1ccc2ccccc2c1)C(=O)N[C@H](C=O)Cc1ccccc1 [Compound 42, N-(2-naphthalenesulfonyl)-L-tert-leucyl-L-phenylalaninal]			5.49		
CC(C)[C@H](NS(=O)(=O)c1ccc2ccccc2c1)C(=O)NC(C=O)CC1CCCCC1 (stereo partly drawn) [Compound 53, N-(2-naphthalenesulfonyl)-L-valyl-L-cyclohexylalaninal]			8.08		
DPMSSTYIEELGKREVTIPPKYRELLA [27 mer calpastatin peptide, from Sigma]					Observation of cornea with a slit lamp: appearance of newly formed blood vessels compared to the control group [1]: the degree of appearance was mild; Wet weight of cornea compared to the control group [1]: suppressed increase in the wet weight of cornea; Amount of albumin in cornea compared to the control group [1]: suppressed increase in the amount of albumin in cornea
CCC[C@H](NS(=O)(=O)c1ccc(F)cc1)C(=O)N[C@H](C=O)CC(C)C [Compound 41, N-(4-fluorophenylsulfonyl)-L-norvalyl-L-leucinal]			6.89		
CC(C)[C@H](NS(=O)(=O)c1ccc(Cl)cc1)C(=O)NC(C=O)CC1CCCCC1 (stereo partly drawn) [Compound 54, N-(4-chlorophenylsulfonyl)-L-valyl-L-cyclohexylalaninal]			7.85		
